Source: the supplement of paper PMC11208160
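Further: IS621 bridge recombinase in Escherichia coli cells against a fixed T5 target plasmid.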

Assay: recombinant UMI read abundance after kanamycin selection (control-corrected) (log10(CPM+1)); higher = more efficient recombination; extreme values may be limits of the assay; sequences stand for … in AGTGCAGAGAAAATCGGCCAGTTTTCTCTGCCTGCAGTCCGCATGCCGTGGGACCCCTTGGGTTCTAACCTGTTGCCTAGATTTATGCAGCGGACTGCCTTTCTCCCAAAGTGATAAACCGG…AGGTTGGTTTCACT; site = the 11-nt donor
How it was run: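 Pooled Escherichia coli screen of donor and donor-binding-loop pairs for the IS621 bridge recombinase. Each pair sits with a 12-nt UMI on a plasmid carrying a promoterless kanamycin gene. The library was co-electroporated with a target plasmid encoding a fixed target and T7-inducible recombinase, then plated with IPTG (0.07 mM) plus kanamycin, or unselected, each in two replicates. Recombinant UMIs were PCR-amplified across the donor–target junction and sequenced. Counts became CPM, averaged over replicates, scaled by control-derived factors and reported as log10(CPM+1).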
In the case of “CGCAAGACATGGACCGGTTTTCCCGGTAATCCGTATTTGGT (site CGCAAGACTAC)”, the “recombinant UMI read abundance (log10)” value is reported as 1.19.
With “CGCAATCCATGGACCGGTTTTCCCGGTAATCCGTATTTGAA (site AGCAATCCTTT)” the “recombinant UMI read abundance (log10)” value was 0.0753.
For “CGCAATCCATGGACCGGTTTTCCCGGTAATCCGTATTTGAA (site CGCAATCCTTT)”, the “recombinant UMI read abundance (log10)” value was 1.27.
With “CGCAATCCATGGACCGGTTTTCCCGGTAATCCGTATTTGAA (site GGCAATCCTTT)” the “recombinant UMI read abundance (log10)” value was 0.00324.
In the case of “CGCAATCCATGGACCGGTTTTCCCGGTAATCCGTATTTGAA (site TGCAATCCTTT)”, the “recombinant UMI read abundance (log10)” value is reported as 0.00288.
With “CGCACCTCATGGACCGGTTTTCCCGGTAATCCGTATTTGGG (site CGCACCTCTCC)” the “recombinant UMI read abundance (log10)” value was 0.526.
With “CGCAGACCATGGACCGGTTTTCCCGGTAATCCGTATTTGGG (site CGCAGACCTCC)” the “recombinant UMI read abundance (log10)” value was 0.0135.
For “CGCAGTACATGGACCGGTTTTCCCGGTAATCCGTATTTGCT (site CGCAGTACTAG)”, the “recombinant UMI read abundance (log10)” value was 1.44.
In the case of “CGCAGTACATGGACCGGTTTTCCCGGTAATCCGTATTTGCT (site CGCCGTACTAG)”, the “recombinant UMI read abundance (log10)” value is reported as 0.
For “CGCAGTACATGGACCGGTTTTCCCGGTAATCCGTATTTGCT (site CGCGGTACTAG)”, the “recombinant UMI read abundance (log10)” value was 0.749.
With “CGCAGTACATGGACCGGTTTTCCCGGTAATCCGTATTTGCT (site CGCTGTACTAG)” the “recombinant UMI read abundance (log10)” value was 0.
In the case of “CGCAGTCCATGGACCGGTTTTCCCGGTAATCCGTATTTGAG (site CGCAGTCCTCT)”, the “recombinant UMI read abundance (log10)” value is reported as 0.438.
In the case of “CGCATATCATGGACCGGTTTTCCCGGTAATCCGTATTTGTC (site CACATATCTGA)”, the “recombinant UMI read abundance (log10)” value is reported as 0.
With “CGCATATCATGGACCGGTTTTCCCGGTAATCCGTATTTGTC (site CCCATATCTGA)” the “recombinant UMI read abundance (log10)” value was 0.
In the case of “CGCATATCATGGACCGGTTTTCCCGGTAATCCGTATTTGTC (site CGCATATCTGA)”, the “recombinant UMI read abundance (log10)” value is reported as 1.86.
With “CGCATATCATGGACCGGTTTTCCCGGTAATCCGTATTTGTC (site CTCATATCTGA)” the “recombinant UMI read abundance (log10)” value was 0.436.
In the case of “CGCATGTCATGGACCGGTTTTCCCGGTAATCCGTATTTGTT (site CGCATGTCTAA)”, the “recombinant UMI read abundance (log10)” value is reported as 2.52.
With “CGCCCATCATGGACCGGTTTTCCCGGTAATCCGTATTTGCT (site CGATCATCTAG)” the “recombinant UMI read abundance (log10)” value was 0.57.
With “CGCCCATCATGGACCGGTTTTCCCGGTAATCCGTATTTGCT (site CGCCCATCTAG)” the “recombinant UMI read abundance (log10)” value was 2.54.
In the case of “CGCCCTACATGGACCGGTTTTCCCGGTAATCCGTATTTGCT (site CGCCATACTAG)”, the “recombinant UMI read abundance (log10)” value is reported as 0.
With “CGCCCTACATGGACCGGTTTTCCCGGTAATCCGTATTTGCT (site CGCCCTACTAG)” the “recombinant UMI read abundance (log10)” value was 1.28.
In the case of “CGCCCTACATGGACCGGTTTTCCCGGTAATCCGTATTTGCT (site CGCCGTACTAG)”, the “recombinant UMI read abundance (log10)” value is reported as 0.0214.
In the case of “CGCCCTACATGGACCGGTTTTCCCGGTAATCCGTATTTGCT (site CGCCTTACTAG)”, the “recombinant UMI read abundance (log10)” value is reported as 0.
With “CGCCCTCCATGGACCGGTTTTCCCGGTAATCCGTATTTGAT (site CGCCCTCCTAT)” the “recombinant UMI read abundance (log10)” value was 0.51.
For “CGCCGTACATGGACCGGTTTTCCCGGTAATCCGTATTTGCG (site CGCCGTACTAG)”, the “recombinant UMI read abundance (log10)” value was 0.
In the case of “CGCCGTACATGGACCGGTTTTCCCGGTAATCCGTATTTGCG (site CGCCGTACTCG)”, the “recombinant UMI read abundance (log10)” value is reported as 1.13.
With “CGCCGTACATGGACCGGTTTTCCCGGTAATCCGTATTTGCG (site CGCCGTACTGG)” the “recombinant UMI read abundance (log10)” value was 0.
With “CGCCGTACATGGACCGGTTTTCCCGGTAATCCGTATTTGCG (site CGCCGTACTTG)” the “recombinant UMI read abundance (log10)” value was 0.00693.
In the case of “CGCCTAGCATGGACCGGTTTTCCCGGTAATCCGTATTTGTT (site AGCCTAGCTAA)”, the “recombinant UMI read abundance (log10)” value is reported as 0.00606.
